Reference: US5668182A, “Method of calming or sedating an animal with a hydroxy benzaldehyde compound” (priority 1996, dated 1997)
Read-outs that look alike come from different tables or passages of the source.

System: mice
Experiment: Inverted screen test in mice (Example 4)
Type: in vivo
Conditions: for ED50: Mus musculus, ip, read-out: ED-50 (95% confidence limits); for potency relative to vanillin: early time points (up to 5 minutes), ethanol vehicle itself gives approximately 10% impairment
Method: An inverted screen test was performed on mice to investigate the effect of vanillin and vanillin analogs on muscular function. After i.p. injection of vanillin or vehicle, each mouse was placed on a wire screen (12.8 cm×12.8 cm with a 6 mm mesh size) and the screen was inverted. A positive effect was found if the drug caused the mouse to fall from the screen within 60 seconds. A negative effect was found if the mouse had the ability to climb from the underside of the screen to the top side of the screen within the 60 second time period. Hanging from the underside of the screen without falling but without climbing to the topside at 60 seconds is recorded as a one-half positive effect per the convention of Coughenour, L. L.; Mclean, J. R.; Parker, R. B., "A New Device for the Rapid Measurement of Impaired Motor Function in Mice," Pharmacol. Biochem. Behav., 6: 351-353; 1977. The test was performed at 2, 5, 10, and 30 minutes following administration of vanillin or vehicle. At each of those times, an ED-50 (and 95% confidence limits) was determined for vanillin. Six mice were used in each experimental group.
Several analogs of vanillin were also examined in this test. The chemical structures and chemical names for these compounds are described hereinabove.
The testing of these compounds was limited both by supply of compound and by solubility. Testing was performed at 2, 5, 10, 20 minutes after administration of drug or vehicle. The vehicles used to solubilize the analogs were as follows: 10% ethanol for TBJ1, TBJ2, and TBJ3; 3% ammonium hydroxide solution in saline for FSA (pH=9); 6.7% ammonium hydroxide in saline for TB17 (pH=9.3); and 20% ethanol, 1% ammonium hydroxide solution in saline for TB34 (pH=10.0). ED-50s of compounds (and 95% confidence limits) were calculated in cases where the data permitted the calculation.

Structure (SMILES): O=Cc1ccc(OCc2ccc(C(=O)O)cc2)c(C(=O)O)c1 [TB34]
- effect on performance in inverted screen test (not included in Table 4): mild or erratic effects

Structure (SMILES): COC(=O)c1ccc(O)c(OC)c1 [TBJ1]
- effect on performance in inverted screen test (200 mg/kg, 5 minutes): 100%
- effect on performance in inverted screen test (200 mg/kg, 20 minutes): 75%
- effect on performance in inverted screen test (doses lower than 200 mg/kg): did not produce significant effects

Structure (SMILES): O=Cc1ccc(OCc2ccccc2)c(C(=O)O)c1 [TB17]
- effect on performance in inverted screen test (not included in Table 4): failed to affect performance

Structure (SMILES): COC(=O)c1ccc(OC)c(O)c1 [TBJ2]
- ED50 (2 min, 2 min post-treatment): ~100 mg/kg
- ED50 (5 min, 5 min post-treatment): > 100 mg/kg
- ED50 (10 min, 10 min post-treatment): 132 mg/kg
- ED50 (20 min, at 20 min (printed in the 30 min line)): ~140 mg/kg
- potency relative to vanillin: approximately equipotent to vanillin
- persistence of effect on performance (highest dose (200 mg/kg)): 20 min
- potency and duration relative to vanillin (mouse, in vivo): approximately equipotent and as long or longer acting

Structure (SMILES): COC(=O)Cc1ccc(O)c(OC)c1 [TBJ3]
- ED-50: activity in words (10 min post-treatment, inactive at 200 (mg/kg)): inactive
- ED50 (5 min, 5 min post-treatment): 99.7 mg/kg
- time by which effect had essentially abated (after injection): ≤ 10 min
- potency relative to vanillin: approximately equipotent to vanillin

Structure (SMILES): O=Cc1ccc(O)c(C(=O)O)c1 [FSA]
- effect on performance in inverted screen test (not included in Table 4): failed to affect performance
